Assay results: patent US20220169632A1, “METHODS AND MATERIALS FOR INCREASING OR MAINTAINING NICOTINAMIDE MONONUCLEOTIDE ADENYLYL TRANSFERASE-2 (NMNAT2) POLYPEPTIDE LEVELS” (University of Pittsburgh - Of the Commonwealth System of …, priority 2019, published 2022)

System: NMNAT2
Experiment: NMNAT2-Hibit nano-luciferase activity in transfected U87MG cells, 25 μM, 24 hours
Type: cell-based
Settings: NMNAT2-Hibit luc plasmid, 24 hours (Table B)
Method: Selected compounds were tested in vitro. Briefly, U87MG cells were transfected with NMNAT2-Hibit luc plasmid. Cells were treated with a test compound at 25 μM for 24 hours. Cells were then collected and assayed for nano-luciferase activity.

Structure (SMILES) | B: compound efficacy (IC50) for NMNAT2 activation; increase in NMNAT2 luciferase activity
CN(C(=O)NCc1noc2ccccc12)c1ccc(Br)cc1 [Compound 181015] | + (“+” <20% increase in NMNAT2 luciferase activity.)
Cc1ccc(C)c(N(C)C(=O)NCc2noc3ccccc23)c1 [Compound 181016] | + (“+” <20% increase in NMNAT2 luciferase activity.)
CN(C(=O)NCc1noc2ccccc12)c1ccccc1Cl [Compound 181017] | + (“+” <20% increase in NMNAT2 luciferase activity.)
Cc1cccc(N(C)C(=O)NCc2noc3ccccc23)c1 [Compound 181018] | + (“+” <20% increase in NMNAT2 luciferase activity.)
COc1ccc(CNC(=O)NCc2noc3ccccc23)cc1 [Compound 181019] | + (“+” <20% increase in NMNAT2 luciferase activity.)
CCOc1ccccc1CNC(=O)NCc1noc2ccccc12 [Compound 181020] | + (“+” <20% increase in NMNAT2 luciferase activity.)
Cc1ccc(NC(=O)NCc2noc3ccccc23)c(Cl)c1 [Compound 181021] | + (“+” <20% increase in NMNAT2 luciferase activity.)
Cc1ccc(CNC(=O)NCc2noc3ccccc23)cc1 [Compound 181022] | + (“+” <20% increase in NMNAT2 luciferase activity.)
Cc1cccc(CCNC(=O)NCc2noc3ccccc23)c1 [Compound 181023] | + (“+” <20% increase in NMNAT2 luciferase activity.)
CCc1ccccc1NC(=O)NCc1noc2ccccc12 [Compound 181024] | + (“+” <20% increase in NMNAT2 luciferase activity.)
O=C(NCc1cccc(Cl)c1)NCc1noc2ccccc12 [Compound 181025] | + (“+” <20% increase in NMNAT2 luciferase activity.)
COc1ccc(NC(=O)NCc2noc3ccccc23)cc1 [Compound 181026] | + (“+” <20% increase in NMNAT2 luciferase activity.)
O=C(NCc1noc2ccccc12)Nc1ccccc1Cl [Compound 181027] | + (“+” <20% increase in NMNAT2 luciferase activity.)
O=C(NCc1noc2ccccc12)Nc1ccc(Cl)cc1 [Compound 181028] | + (“+” <20% increase in NMNAT2 luciferase activity.)
O=C(NCc1ccc(Cl)cc1)NCc1noc2ccccc12 [Compound 181029] | ++ (“++” >20% and <100% increase in NMNAT2 luciferase activity.)
Cc1ccc(CCNC(=O)NCc2noc3ccccc23)cc1 [Compound 181030] | + (“+” <20% increase in NMNAT2 luciferase activity.)
CC(=O)c1cccc(NC(=O)NCc2noc3ccccc23)c1 [Compound 181031] | + (“+” <20% increase in NMNAT2 luciferase activity.)
CN(C(=O)NCc1noc2ccccc12)c1ccc(F)cc1 [Compound 181032] | + (“+” <20% increase in NMNAT2 luciferase activity.)
CSc1ccc(CCNC(=O)NCc2noc3ccccc23)cc1 [Compound 181033] | ++ (“++” >20% and <100% increase in NMNAT2 luciferase activity.)
CC(NC(=O)NCc1noc2ccccc12)c1ccccc1 (stereo not drawn) [Compound 181034] | + (“+” <20% increase in NMNAT2 luciferase activity.)
Cc1cc(C)cc(NC(=O)NCc2noc3ccccc23)c1 [Compound 181035] | + (“+” <20% increase in NMNAT2 luciferase activity.)
O=C(NCc1ccccc1)NCc1noc2ccccc12 [Compound 181036] | + (“+” <20% increase in NMNAT2 luciferase activity.)
Cc1ccc2onc(CNC(=O)Nc3cccc(C(F)(F)F)c3)c2c1 [Compound 181037] | + (“+” <20% increase in NMNAT2 luciferase activity.)
Cc1ccc(NC(=O)NCc2noc3ccc(C)cc23)c(Br)c1 [Compound 181038] | + (“+” <20% increase in NMNAT2 luciferase activity.)
Cc1ccc2onc(CNC(=O)Nc3ccc(C)c(F)c3)c2c1 [Compound 181039] | + (“+” <20% increase in NMNAT2 luciferase activity.)
Cc1ccc2onc(CNC(=O)Nc3ccc(F)c(Cl)c3)c2c1 [Compound 181040] | + (“+” <20% increase in NMNAT2 luciferase activity.)
COc1ccc(NC(=O)NCc2noc3ccc(C)cc23)cc1Cl [Compound 181041] | + (“+” <20% increase in NMNAT2 luciferase activity.)

Structure (SMILES) | B: compound efficacy (IC50) for NMNAT2 activation; increase in NMNAT2 luciferase activity
Cc1ccc2onc(CNC(=O)Nc3ccc(F)cc3F)c2c1 [Compound 181042] | + (“+” <20% increase in NMNAT2 luciferase activity.)
Cc1ccc2onc(CNC(=O)Nc3ccccc3F)c2c1 [Compound 181043] | + (“+” <20% increase in NMNAT2 luciferase activity.)
COc1ccccc1CNC(=O)NCc1noc2ccc(C)cc12 [Compound 181044] | + (“+” <20% increase in NMNAT2 luciferase activity.)
Cc1ccc2onc(CNC(=O)N3CCN(c4cccc(Cl)c4)CC3)c2c1 [Compound 181045] | + (“+” <20% increase in NMNAT2 luciferase activity.)
Cc1ccc2onc(CNC(=O)NC3CCCC(C)C3C)c2c1 (stereo not drawn) [Compound 181046] | + (“+” <20% increase in NMNAT2 luciferase activity.)
Cc1ccc2onc(CNC(=O)NCc3ccc(F)cc3)c2c1 [Compound 181047] | ++ (“++” >20% and <100% increase in NMNAT2 luciferase activity.)
COCCCNC(=O)NCc1noc2ccc(C)cc12 [Compound 181048] | ++ (“++” >20% and <100% increase in NMNAT2 luciferase activity.)
Cc1ccc2onc(CNC(=O)NC3CCCCCC3)c2c1 [Compound 181049] | + (“+” <20% increase in NMNAT2 luciferase activity.)
Cc1ccc2onc(CNC(=O)NCc3ccccn3)c2c1 [Compound 181050] | + (“+” <20% increase in NMNAT2 luciferase activity.)
Cc1ccc2onc(CNC(=O)NCc3cccnc3)c2c1 [Compound 181051] | + (“+” <20% increase in NMNAT2 luciferase activity.)
CCc1ccc(NC(=O)NCc2noc3ccc(C)cc23)cc1 [Compound 181052] | + (“+” <20% increase in NMNAT2 luciferase activity.)
Cc1ccc2onc(CNC(=O)Nc3ccc(C(C)C)cc3)c2c1 [Compound 181053] | + (“+” <20% increase in NMNAT2 luciferase activity.)
CCN(C(=O)NCc1noc2ccc(C)cc12)c1cccc(Cl)c1 [Compound 181054] | + (“+” <20% increase in NMNAT2 luciferase activity.)
Cc1ccc2onc(CNC(=O)N(C)c3cccc(Cl)c3)c2c1 [Compound 181055] | + (“+” <20% increase in NMNAT2 luciferase activity.)
Cc1ccc2onc(CNC(=O)N(C)c3ccc(C)c(C)c3)c2c1 [Compound 181056] | + (“+” <20% increase in NMNAT2 luciferase activity.)
Cc1ccc2onc(CNC(=O)N(C)c3ccccc3Cl)c2c1 [Compound 181057] | + (“+” <20% increase in NMNAT2 luciferase activity.)
Cc1cccc(N(C)C(=O)NCc2noc3ccc(C)cc23)c1 [Compound 181058] | + (“+” <20% increase in NMNAT2 luciferase activity.)
Cc1ccc2onc(CNC(=O)NCCc3ccc(Cl)cc3)c2c1 [Compound 181059] | + (“+” <20% increase in NMNAT2 luciferase activity.)
COc1ccc(CNC(=O)NCc2noc3ccc(C)cc23)cc1 [Compound 181060] | ++ (“++” >20% and <100% increase in NMNAT2 luciferase activity.)
CCCN(C(=O)NCc1noc2ccc(C)cc12)c1ccc(Cl)c(Cl)c1 [Compound 181061] | + (“+” <20% increase in NMNAT2 luciferase activity.)
Cc1ccc(NC(=O)NCc2noc3ccc(C)cc23)c(Cl)c1 [Compound 181062] | + (“+” <20% increase in NMNAT2 luciferase activity.)
Cc1ccc2onc(CNC(=O)NC3CC3)c2c1 [Compound 181063] | + (“+” <20% increase in NMNAT2 luciferase activity.)
CCn1c2ccccc2c2cc(NC(=O)NCc3noc4ccc(C)cc34)ccc21 [Compound 181064] | + (“+” <20% increase in NMNAT2 luciferase activity.)
Cc1ccc2onc(CNC(=O)NC3CCN(Cc4ccccc4)CC3)c2c1 [Compound 181065] | + (“+” <20% increase in NMNAT2 luciferase activity.)
Cc1ccc2onc(CNC(=O)Nc3cccc(C#N)c3)c2c1 [Compound 181066] | + (“+” <20% increase in NMNAT2 luciferase activity.)
CCc1cccc(NC(=O)NCc2noc3ccc(C)cc23)c1 [Compound 181067] | + (“+” <20% increase in NMNAT2 luciferase activity.)
CCc1ccc(CNC(=O)NCc2noc3ccc(C)cc23)cc1 [Compound 181068] | ++ (“++” >20% and <100% increase in NMNAT2 luciferase activity.)
